Measurements from patent US20090286876A1, “NEUROPROTECTIVE BENZOATE AND BENZAMIDE COMPOUNDS” (Samaritan Pharmaceuticals, Inc., priority 2003, published 2009).
Read-outs that look alike come from different tables or passages of the source.

Legend:
PC12 cells [1] = assay: Aβ1-42-induced free radical production (2,7-DCF fluorescent probe); conditions: compound 1-100 μM 24 h pre-incubation; Aβ1-42 0.1-10 μM 24 h
PC12 cells [2] = assay: Reversal of Aβ1-42-induced ATP depletion (ATPLite-M assay); conditions: for ATP decrease induced by Aβ1-42, Aβ1-42 control = 100% reduction: 24 h pre-incubation, 24 h; for effect on Aβ1-42-induced ATP decrease, in words: compound 1-100 μM, Aβ1-42 0.1-10 μM
PC12 cells [3] = assay: Neuroprotection against Aβ1-42 cytotoxicity, MTT assay (NADPH diaphorase activity); format: cell-based, rat
PC12 cells [4] = assay: Glutamate-induced excitotoxicity, MTT assay; format: cell-based, rat; conditions: glutamate 100 μM 24 h; for neuroprotective effect against glutamate-induced cell death (MTT), in words: compound 0.3-30 μM 24 h pre-incubation
σ2-receptor = σ2-receptor (Homo sapiens, UniProt Q5BJF2); assay: σ2-receptor binding
[5] = cited from earlier work
HMG-CoA reductase mRNA = HMG-CoA reductase mRNA synthesis, real-time quantitative PCR; format: cell-based, rat
sigma-1 receptor = molecular target: T1, sigma-1 receptor (Homo sapiens, UniProt Q99720); assay: Displacement of [3H](+)pentazocine from sigma-1 receptor expressed in Jurkat cells; format: binding
T1 construct: sigma-1 receptor expressed in Jurkat cells; endogenous in cells; host or cells: Jurkat cells

[6] = compound 1-100 μM, Aβ1-42 0.1-10 μM

T1 sequence (Q99720 whole entry): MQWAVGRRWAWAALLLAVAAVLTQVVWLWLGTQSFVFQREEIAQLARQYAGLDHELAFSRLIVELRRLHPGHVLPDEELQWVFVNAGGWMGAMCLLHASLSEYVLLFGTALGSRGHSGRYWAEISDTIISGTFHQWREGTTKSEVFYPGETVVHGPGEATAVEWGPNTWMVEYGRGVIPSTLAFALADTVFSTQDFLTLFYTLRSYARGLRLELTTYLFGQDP
Sequence of σ2-receptor (Q5BJF2 whole entry, species assumed): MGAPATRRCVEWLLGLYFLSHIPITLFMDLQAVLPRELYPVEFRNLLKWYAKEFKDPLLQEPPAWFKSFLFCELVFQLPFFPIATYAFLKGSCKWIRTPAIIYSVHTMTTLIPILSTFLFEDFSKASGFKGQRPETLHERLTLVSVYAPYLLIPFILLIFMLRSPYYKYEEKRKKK

Molecule | effect on Aβ1-42-induced free radical production, in words (PC12 cells [1]) | ATP decrease induced by Aβ1-42, Aβ1-42 control = 100% reduction (PC12 cells [2]; compound 1 μM, Aβ1-42 0.1 μM) [%] | ATP decrease induced by Aβ1-42, Aβ1-42 control = 100% reduction (PC12 cells [2]; compound 1 μM, Aβ1-42 1 μM) [%] | ATP decrease induced by Aβ1-42, Aβ1-42 control = 100% reduction (PC12 cells [2]; compound 1 μM, Aβ1-42 10 μM) [%] | ATP decrease induced by Aβ1-42, Aβ1-42 control = 100% reduction (PC12 cells [2]; compound 10 μM, Aβ1-42 0.1 μM) [%] | ATP decrease induced by Aβ1-42, Aβ1-42 control = 100% reduction (PC12 cells [2]; compound 10 μM, Aβ1-42 1 μM) [%] | ATP decrease induced by Aβ1-42, Aβ1-42 control = 100% reduction (PC12 cells [2]; compound 10 μM, Aβ1-42 10 μM) [%] | ATP decrease induced by Aβ1-42, Aβ1-42 control = 100% reduction (PC12 cells [2]; compound 100 μM, Aβ1-42 0.1 μM) [%] | ATP decrease induced by Aβ1-42, Aβ1-42 control = 100% reduction (PC12 cells [2]; compound 100 μM, Aβ1-42 1 μM) [%] | ATP decrease induced by Aβ1-42, Aβ1-42 control = 100% reduction (PC12 cells [2]; compound 100 μM, Aβ1-42 10 μM) [%] | effect on Aβ1-42-induced ATP decrease, in words (PC12 cells [2]) | protective effect against Aβ1-42 neurotoxicity (MTT), in words (PC12 cells [3]; [6]) | other results
CCN(CC)CCNC(=O)c1ccc(N)cc1 [Procainamide] | exhibited a trend to reduce the Aβ1-42-induced free radical production | 46.8 ± 25.9 | 51.4 ± 17.3 | 56.5 ± 11.6 | 60.4 ± 5.8 | 61.7 ± 10.8 | 56.2 ± 6.1 | 40.9 ± 14.5 | 40.8 ± 6.5 | 52.2 ± 10.2 | significantly prevented the Aβ1-42-induced decrease of intracellular ATP levels | – | –
CCCCNc1ccc(C(=O)OCCN(C)C)cc1 [Tetracaine] | exhibited a trend to reduce the Aβ1-42-induced free radical production | 54.8 ± 4.0 | 32.2 ± 5.5 | 45.5 ± 6.1 | 59.5 ± 9.6 | 58.0 ± 18.9 | 41.9 ± 4.2 | 59.3 ± 10.5 | 45.4 ± 2.2 | 45.8 ± 6.5 | significantly prevented the Aβ1-42-induced decrease of intracellular ATP levels | – | –
CCN(CC)CC(=O)Nc1c(C)cccc1C [Lidocaine, (2-diethylamino)-N-(2,6-dimethylphenyl)-acetamide] | exhibited a trend to reduce the Aβ1-42-induced free radical production | 38.7 ± 26.1 | 62.0 ± 8.5 | 53.5 ± 20.3 | 47.2 ± 28.7 | 69.0 ± 13.0 | 65.0 ± 7.6 | 65.3 ± 45.2 | 81.3 ± 8.7 | 70.1 ± 4.8 | restored ATP concentrations in PC12 cells exposed to 0.1 and 1 μM Aβ1-42 | – | –
CC1=CCC23OC2(C)CCC2C(CN4CCN(C(=O)c5ccccc5)CC4)C(=O)OC2C13 (stereo not drawn) [SP017, 3-(4-benzoyl-piperazin-1-yl-methyl)-6,6a-epoxy-6,9-dimethyl-3a,4,5,6,6a,7,9a,9b-octahydro-3H-azuleno[4,5-b]furan-2-one] | amplified the Aβ1-42-induced free radicals production | 28.1 ± 7.2 | 42.6 ± 5.8 | 73.0 ± 12.1 | 54.9 ± 15.6 | 44.9 ± 8.1 | 68.9 ± 7.3 | 115 ± 21.4 | 108 ± 20.8 | 122 ± 6.7 | able to reverse the effect of Aβ1-42 on ATP | at 100 μM potentiated the toxic effect of Aβ1-42 | efficacy range, inhibition of Aβ1-42 toxicity (mitochondrial diaphorase activity) (PC12 cells [3]): 30-70%
CCN1CCN(OC(=O)c2ccc(OC)c(OC)c2OC)CC1 [SP008, (4-ethylpiperazinyl-1-yl)-2′,3′,4′-trimethoxybenzoate] | – | – | – | – | – | – | – | – | – | – | – | – | neuroprotective effect against glutamate-induced cell death (MTT), in words (PC12 cells [4]): more important than that of procaine effect at the same concentration; concentration of maximum (peak) protective effect against glutamate (PC12 cells [4]; compound tested at 0.3-30 μM): 3 µM
CCN(CC)CCOC(=O)c1ccc(N)cc1 [Procaine, 4-aminobenzoic acid 2-(diethylamino)ethyl ester] | exhibited a trend to reduce the Aβ1-42-induced free radical production | 64.0 ± 24.4 | 67.8 ± 13.8 | 86.8 ± 5.5 | 56.0 ± 16.4 | 97.0 ± 45.5 | 89.8 ± 5.1 | 42.8 ± 16.9 | 69.6 ± 12.1 | 83.6 ± 20.6 | protected against the 0.1 μM Aβ1-42-induced depletion of ATP concentrations in a dose-dependent manner | important protective effect against 0.1 and 1 μM Aβ1-42 induced toxicity | neuroprotective effect against glutamate-induced cell death (MTT), in words (PC12 cells [4]): prevented the glutamate-induced neurotoxicity in a biphasic manner; IC50 (σ2-receptor): > 10 µM; pKa [5]: 8.9; basal level of HMG-CoA reductase mRNA, in words (HMG-CoA reductase mRNA; control PC12 cells, no Aβ1-42): did not affect; level of HMG-CoA reductase mRNA induced by Aβ1-42, in words (HMG-CoA reductase mRNA; procaine 1 or 10 μM 18 h pre-incubation, Aβ1-42 1 μM 24 h): decreased in a dose-dependent manner; reduction of the NADPH diaphorase inhibition induced by Aβ1-42 (PC12 cells [3]; 1 and 10 μM procaine): at least 30%; Hill coefficient (nH) (sigma-1 receptor): 1.0; IC50 (sigma-1 receptor): 4.3 µM
CC(=O)OC1CC(O)C2(C)C(OC(C)=O)C3C(CC(C)C12)OC(=O)C3CN1CCN(C(=O)c2ccccc2)CC1 (stereo not drawn) [SP015, Acetic acid 7-acetoxy-3-(4-benzoyl-piperazin-1-yl-methyl)-5-hydroxy-4a, 8-dimethyl-2-oxo-dodecahydro-azuleno[6,5-b]furan-4-yl ester] | amplified the Aβ1-42-induced free radicals production | 46.3 ± 10.1 | 55.6 ± 5.3 | 32.8 ± 9.4 | 99.2 ± 13.1 | 124 ± 24.7 | 104 ± 22.5 | 91.5 ± 1.5 | 85.6 ± 12.3 | 73.8 ± 6.8 | able to reverse the effect of Aβ1-42 on ATP | protected only at 1 and 10 μM concentrations against the highest concentration of Aβ1-42 | –
Aβ1-42: 42 amino acid β-amyloid peptide purchased from American Peptide Co., used as neurotoxic insult | – | – | – | – | – | – | – | – | – | – | – | – | HMG-CoA mRNA synthesis (HMG-CoA reductase mRNA; Aβ1-42 1 μM, 24 h, compared to control PC12 cells): 1.48±0.17 times the control level
CC(=O)OC1CC(OC(C)=O)C2(C)C(O)C3C(CC(C)C12)OC(=O)C3CN1CCN(C(=O)c2ccccc2)CC1 (stereo not drawn) [SP016, acetic acid 5-acetoxy-3-(4-benzoyl-piperazin-1-yl-methyl)-4-hydroxy-4a, 8-dimethyl-2-oxo-dodecahydro-azuleno[6,5-b]furan-7-yl ester] | amplified the Aβ1-42-induced free radicals production | 49.5 ± 10.2 | 81.5 ± 4.2 | 96.8 ± 30.6 | 101 ± 7.8 | 105 ± 10.1 | 110 ± 10.1 | 86.3 ± 15.7 | 100 ± 17.8 | 121 ± 29.0 | – | no protective activity | –
(+)-MK801 | – | – | – | – | – | – | – | – | – | – | – | – | protective effect against Aβ1-42 neurotoxicity (MTT), in words (PC12 cells [3]): lessens in a dose-dependent manner PC12 cell viability decrease induced by Aβ1-42
